# Data published in ChEMBL document CHEMBL5518158, “Recent advances in triazoles as tyrosinase inhibitors” (Eur J Med Chem, 2023).
# Legend:
# Assay type in all cases: protein assay
# [1] = target: T1, Mushroom tyrosinase (Agaricus bisporus, UniProt O42713+Q00024+C7FF04+C7FF05); assay: Inhibition of mushroom tyrosinase using L-DOPA as substrate incubated for 20 mins spectrophotometric analysis
# [2] = target: T1, Mushroom tyrosinase; assay: Inhibition of mushroom tyrosinase using L-DOPA as substrate pre-treated for 20 mins followed by substrate addition measured for 15 mins by absorbance based analysis
# [3] = target: T1, Mushroom tyrosinase; assay: Inhibition of mushroom tyrosinase by spectrophotometric method
# [4] = target: T1, Mushroom tyrosinase; assay: Inhibition of mushroom tyrosinase incubated for 10 mins by spectrophotometric analysis
# [5] = target: T1, Mushroom tyrosinase; assay: Binding affinity to mushroom tyrosinase assessed as inhibition constant
# [6] = target: T1, Mushroom tyrosinase; assay: (§1) Inhibition of mushroom tyrosinase using L-DOPA as substrate incubated for 15 mins by spectrophotometric analysis
# [7] = target: T1, Mushroom tyrosinase; assay: Inhibition of mushroom tyrosinase using L-dopa as substrate by spectrophotometric method
# [8] = target: T1, Mushroom tyrosinase; assay: Inhibition of mushroom tyrosinase using L-tyr as substrate
# [9] = target: T1, Mushroom tyrosinase; assay: Inhibition of mushroom tyrosinase using L-DOPA as substrate measured for 15 mins by spectrophotometer analysis
# [10] = target: T1, Mushroom tyrosinase; assay: Inhibition of mushroom tyrosinase using L-DOPA as substrate preincubated for 10 mins
# [11] = target: T1, Mushroom tyrosinase; assay: Binding affinity to mushroom tyrosinase assessed as binding constant by fluorescence spectrophotometry
# [12] = target: T1, Mushroom tyrosinase; assay: Inhibition of mushroom tyrosinase using L-tyrosine as substrate incubated for 20 mins by spectrophotometric analysis
# [13] = target: Mushroom tyrosinase (Agaricus bisporus) (UniProt O42713+Q00024+C7FF04+C7FF05); assay: as §1
smiles,measurement,setting,value
O=c1cc(Cn2cc(COc3cccc4ccccc34)nn2)occ1O,IC50,[1],60 nM
Oc1ccc2c(c1)OCO2,IC50,[2],6700 nM
CCCCCn1nc(-c2ccccc2)n(CC(=O)NNC(=O)Nc2cccc(C(F)(F)F)c2)c1=O,IC50,[3],1 nM
O=c1cc(Cn2cc(COc3ccc4ccccc4c3)nn2)occ1O,IC50,[1],300 nM
O=c1cc(Cn2cc(COc3ccc([N+](=O)[O-])cc3)nn2)occ1O,IC50,[4],520 nM
CCCCCn1nc(-c2ccccc2)n(CC(=O)NNC(=S)Nc2ccccc2C(F)(F)F)c1=O,Ki,[5],100 nM
Cc1cc(C=C2C(=O)NC(=S)NC2=O)c(OCc2cn(Cc3ccc(F)cc3)nn2)cc1Br,Ki,[5],60270 nM
same,IC50,[6],24600 nM
Nn1c(S)nnc1N/N=C\c1cccc(F)c1,IC50,[7],12500 nM
COc1ccc(C=O)cc1O [ISOVANILLIN],IC50,[8],> 500000 nM
COc1ccc(NC(=O)Cn2cc(COc3ccc(/C=N/NC(N)=S)cc3)nn2)cc1,IC50,[9],250 nM
Nn1c(S)nnc1N/N=C\c1cccc(O)c1,IC50,[7],7000 nM
Cc1c(NC(=O)Cn2cc(COc3ccc(/C=N/NC(N)=S)cc3)nn2)cccc1[N+](=O)[O-],IC50,[9],120 nM
O=C(CSc1nnc(-c2ccccc2F)n1-c1ccc(F)cc1)Nc1ccc(F)cc1,IC50,[10],98 nM
same,Ki,[11],18 nM
CCCCCn1nc(-c2ccccc2)n(CC(=O)NNC(=O)Nc2ccccc2C(F)(F)F)c1=O,IC50,[3],1 nM
same,Ki,[5],10 nM
C/C=C/c1ccc(O)c(OC)c1,IC50,[12],33330 nM
O=c1oc2ccccc2c2nn(Cc3cn(-c4c(Cl)cc(Cl)cc4Cl)nn3)cc12,inhibition,[13],58%
CCCCCn1nc(-c2ccccc2)n(CC(=O)NNC(=O)Nc2cc(C(F)(F)F)cc(C(F)(F)F)c2)c1=O,IC50,[3],1 nM
Nn1c(S)nnc1N/N=C\c1ccccc1O,IC50,[7],1520 nM
